Source: publication PMC3836994, “Killer Bee Molecules: Antimicrobial Peptides as Effector Molecules to Target Sporogonic Stages of Plasmodium” (PLoS Pathogens, 2013)

Tests used:
Plasmodium spp. = settings: An. gambiae infected with a variety of Plasmodium spp., magainin injected into the midgut haemocoel; ref [29]; cited from earlier work
From the text: (§1) Supplement ppat.1003790.s001.doc, table 1: Table S1. Peptide sequence, activity and source. | column: Sequence and description

[1] = test system: wide spectrum of microorganisms; settings: x as strong as magainin 2; ref [83]; cited from earlier work
From the text: as §1

P. falciparum = test: Field P. falciparum from gametocyte carriers membrane-fed to An. gambiae (Mali); assay type: in vivo, Plasmodium falciparum; settings: 50 µM
From the text: Nyaganabougou, a village approximately 60 km south-west of the Malian capital, Bamako, was used as a site for the source of donors of malaria-infected blood. Due to its proximity to the river Niger, which provides perennial mosquito breeding sites, Nyaganabougou has high numbers of infected individuals and an extended transmission season. Mosquitoes used to establish the An. gambiae Mali colony used for this study were originally collected in the village of Kenieroba (a distance of 15 km from Nyaganabougou). Potential male and female gametocyte carriers between the ages of 6–10 were screened by thick smear and parasite species and density determined by local staff, led by Saibou Doumbia.
Gametocyte carriers were taken to the Malaria Research and Training Centre at the University of Bamako for blood donation. Approximately 4 ml of blood was extracted from carriers and immediately divided into 3 Hemotek membrane feeders for testing 2 separate AMPs and one control for each carrier. Peptides were added to 950 µl of gametocytaemic blood for a final concentration of 50 µM. All parasite-positive individuals were subsequently treated appropriately for parasites and associated symptoms, as determined by, and carried out by, local health workers in Nyaganabougou.
Approximately 120 adult female An. gambiae (Mali, 4–7 days old) were starved overnight, and allowed to feed on the gametocytaemic blood/AMP mix for 30 min. Engorged females were maintained on 10% glucose with 0.05% PABA for 8 days before dissection. No oviposition sites were provided so that fecundity could be measured by determining retained eggs. Mosquito wing length, numbers of retained eggs and oocysts were recorded, and triplicate peptide experiments were carried out on different mosquito cohorts, using blood from different donors. Where possible, a minimum of 50 mosquitoes were dissected for each condition.

Sequence	Oocyst development abolished (Plasmodium spp.)	Activity relative to magainin 2 [1]	Oocyst prevalence (oocyst positive mosquitoes), peptide (P. falciparum; Replicate 1, blood of gametocyte carriers, progeny of field An. gambiae)	Oocyst intensity (mean number of oocysts per gut, range in parentheses), peptide (P. falciparum; Replicate 1, field parasites and mosquitoes)	Reduction of prevalence (P. falciparum; single preliminary experiment) [%]
GIGKFLHSAKKFGKAFVGEIMNS [Magainin II, AMP from Xenopus laevis skin, forms pores]	GIGKFLHSAKKFGKAFVGEIMNS. AMP from Xenopus laevis skin. Forms pores and induces cell permeabilisation. An. gambiae infected with a variety of Plasmodium spp. injected with magainin into the midgut haemocoel abolished oocyst development >80%.				
KGRGKQGGKVRAKAKTRSS [Parasin, Parasin I, Isolated from the skin mucus of wounded catfish]		KGRGKQGGKVRAKAKTRSS. Isolated from the skin mucus of wounded catfish. Strong activity (12-100x as strong as magainin 2) against a wide spectrum of microorganisms, without any haemolytic activity.	3% (64)	<1 (0–2)	80
